Test results: patent US8883782B2, “Spiro-tetracyclic ring compounds as beta-secretase modulators and methods of use” (Amgen Inc., priority 2010, dated 2014)
pIC50: −log10 of the molar value. Read-outs that look alike come from different tables or passages of the source.

Columns and labels:
[1] = molecular target: Beta Secretase enzyme (BACE) (Homo sapiens, UniProt P56817); assay: In vitro enzymatic BACE FRET (fluorescence resonance energy transfer) assay; assay type: biochemical; conditions: for pIC50: average IC50, enzyme assay, read-out: BACE 1 FRET assay
Outline: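 A peptide bearing a fluorophore and quencher across the cleavage site serves as substrate at 50 nM. Reactions proceed one hour in acidic acetate buffer (0.05 M, pH 4.2) containing 10% DMSO final and 100 uM genapol, then are terminated with Tris and read fluorimetrically.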

[2] = tested on: Aβ40 in conditioned medium of cells stably expressing Amyloid Precursor Protein (APP); assay: In vitro BACE cell-based assay (Aβ40 in conditioned medium, sandwich ELISA); conditions: for pIC50: read-out: HEK cell assay
Outline: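 Secreted Aβ40 is captured with pAb40 and detected with biotinylated 6E10, read by europium time-resolved fluorescence. IC50 comes from percent inhibition versus concentration.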

[3] = Homo sapiens, HEK293, average IC50, HEK cells
[4] = Homo sapiens, HEK293, average IC50

Sequence of Beta Secretase enzyme (BACE) (P56817 46-501, species assumed): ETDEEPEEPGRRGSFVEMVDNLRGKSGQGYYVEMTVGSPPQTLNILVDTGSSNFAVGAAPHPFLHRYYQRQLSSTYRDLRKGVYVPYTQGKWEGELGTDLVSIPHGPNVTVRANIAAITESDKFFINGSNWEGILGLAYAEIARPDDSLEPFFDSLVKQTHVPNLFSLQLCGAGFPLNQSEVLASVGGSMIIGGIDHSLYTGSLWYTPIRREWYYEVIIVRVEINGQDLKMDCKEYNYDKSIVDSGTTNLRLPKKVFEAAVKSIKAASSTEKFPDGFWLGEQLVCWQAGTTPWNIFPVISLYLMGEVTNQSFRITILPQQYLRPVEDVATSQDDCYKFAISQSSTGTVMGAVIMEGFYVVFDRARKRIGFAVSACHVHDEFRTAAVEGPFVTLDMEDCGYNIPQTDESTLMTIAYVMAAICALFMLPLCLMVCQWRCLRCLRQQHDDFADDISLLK

SMILES	pIC50 [1]	pIC50 [2, 3]	pIC50 [2, 4]	further results
NC1=N[C@@]2(CO1)c1cc(Oc3ccc(Cl)cn3)ccc1Oc1c(F)cc(C3=CCOCC3)cc12 [Example 1066, (4S)-7′-((5-chloro-2-pyridinyl)oxy)-2′-(3,6-dihydro-2H-pyran-4-yl)-4′-fluorospiro[1,3-oxazole-4,9′-xanthen]-2-amine]	7.28		5.70	
NC1=N[C@@]2(CS1)c1cc(-c3cccnc3F)ccc1Oc1cnc(C3=CCOCC3)cc12 [Example 590, (5S)-3-(3,6-dihydro-2H-pyran-4-yl)-7-(2-fluoro-3-pyridinyl)spiro[chromeno[2,3-c]pyridine-5,4′-[1,3]thiazol]-2′-amine]				IC50 ([1]; BACE 1 FRET assay (uM)): 0.0007 µM; IC50 ([2]; Homo sapiens, HEK293, read-out: HEK cell assay (uM), average IC50, HEK cells): 0.0093 µM
NC1=N[C@@]2(CS1)c1cc(-c3cccnc3F)ccc1Oc1ncc(C3CCOCC3)cc12 [Example 729, (5S)-7-(2-fluoro-3-pyridinyl)-3-(tetrahydro-2H-pyran-4-yl)spiro[chromeno[2,3-b]pyridine-5,4′-[1,3]thiazol]-2′-amine]	8.17		7.37	
Cn1ccc(-c2cnc3c(c2)[C@]2(COC(N)=N2)c2cc(C#CC(C)(C)C)ccc2O3)n1 [Example 180, (5S)-7-(3,3-dimethyl-1-butyn-1-yl)-3-(1-methyl-1H-pyrazol-3-yl)spiro[chromeno[2,3-b]pyridine-5,4′-[1,3]oxazol]-2′-amine]	7.31		6.78	
COC[C@H]1SC(N)=NC12c1cc(-c3cccnc3F)ccc1Oc1cnc(-c3ccnc(F)c3)cc12 (single isomer, unassigned) [Example 1093, (4′S/R,5′S)-7-(2-fluoropyridin-3-yl)-3-(2-fluoropyridin-4-yl)-5′-(methoxymethyl)-5′H-spiro[chromeno[2,3-c]pyridine-5,4′-thiazol]-2′-amine]	8.24			pIC50 [2]: 6.31
COC(C)(C)C#Cc1cnc2c(c1)[C@@]1(COC(N)=N1)c1cc(-c3cncc(F)c3)c(F)cc1O2 [Example 642, (5R)-8-fluoro-7-(5-fluoro-3-pyridinyl)-3-(3-methoxy-3-methyl-1-butyn-1-yl)spiro[chromeno[2,3-b]pyridine-5,4′-[1,3]oxazol]-2′-amine]	6.96	6.36		
NC1=N[C@@]2(CO1)c1cc(Oc3cccc(Cl)n3)ccc1Oc1c(F)cc(N3CCOCC3)cc12 [Example 1060, (4S)-7′-((6-chloro-2-pyridinyl)oxy)-4′-fluoro-2′-(4-morpholinyl)spiro[1,3-oxazole-4,9′-xanthen]-2-amine]	7.47		6.50	
CC(C)(O)C#Cc1c(OCC2(C)COC2)ccc2c1[C@]1(COC(N)=N1)c1cc(-c3cccnc3)ccc1O2 [Example 518, 4-((4S)-2-amino-2′-((3-methyl-3-oxetanyl)methoxy)-7′-(3-pyridinyl)spiro[1,3-oxazole-4,9′-xanthen]-1′-yl)-2-methyl-3-butyn-2-ol]	7.12	7.19		
CN(C)c1cc2c(cn1)Oc1ccc(-c3cccnc3)cc1[C@@]21COC(N)=N1 [Example 403, (5S)-N~3~,N~3~-dimethyl-7-(3-pyridinyl)spiro[chromeno[2,3-c]pyridine-5,4′-[1,3]oxazole]-2′,3-diamine]	7.37	6.95		
CN(C)c1cc2c(cn1)Oc1ccc(-c3cccnc3F)cc1C21CSC(N)=N1 (centres unmarked) [Example 693, 7-(2-fluoro-3-pyridinyl)-N~3~,N~3~-dimethylspiro[chromeno[2,3-c]pyridine-5,4′-[1,3]thiazole]-2′,3-diamine]	7.98	6.63		
COCC1SC(N)=NC12c1cc(-c3cccnc3F)ccc1Oc1c(F)cc(OC)cc12 [Example 720, (4R)-4′-fluoro-7′-(2-fluoro-3-pyridinyl)-2′-methoxy-5-(methoxymethyl)spiro[1,3-thiazole-4,9′-xanthen]-2-amine, (4S)-4′-fluoro-7′-(2-fluoro-3-pyridinyl)-2′-methoxy-5-(methoxymethyl)spiro[1,3-thiazole-4,9′-xanthen]-2-amine]	7.17		5.86	
COc1ccc2c(c1)[C@@]1(COC(N)=N1)c1cc(-n3nccc3C)cc(F)c1O2 [Example 663, (4S)-4′-fluoro-7′-methoxy-2′-(5-methyl-1H-pyrazol-1-yl)spiro[1,3-oxazole-4,9′-xanthen]-2-amine]	6.37	5.07		
CC1(C#Cc2cc3c(cn2)Oc2ccc(-c4ccccc4)cc2[C@@]32COC(N)=N2)COC1 [Example 155, (5S)-3-((3-methyl-3-oxetanyl)ethynyl)-7-phenylspiro[chromeno[2,3-c]pyridine-5,4′-[1,3]oxazol]-2′-amine]	7.76		6.76	
CC(C)(O)C#Cc1cncc(-c2ccc3c(c2)[C@@]2(COC(N)=N2)c2cc(C4=CCCOC4)ncc2O3)c1 [Example 819, 4-(5-((5S)-2′-amino-3-(5,6-dihydro-2H-pyran-3-yl)spiro[chromeno[2,3-c]pyridine-5,4′-[1,3]oxazol]-7-yl)-3-pyridinyl)-2-methyl-3-butyn-2-ol]	8.28		6.62	

The remaining molecules from weak to strong by pIC50 [1], led by results:

pIC50 [1]	pIC50 [2, 3]	pIC50 [2, 4]	SMILES	further results
8.29	7.15		COc1nccc(-c2cc(F)c3c(c2)[C@]2(COC(N)=N2)c2cc(-c4cccnc4F)ccc2O3)n1 [Example 607, (4S)-4′-fluoro-7′-(2-fluoro-3-pyridinyl)-2′-(2-methoxy-4-pyrimidinyl)spiro[1,3-oxazole-4,9′-xanthen]-2-amine]	
8.30		7.23	NC1=N[C@@]2(CS1)c1cc(-c3cnccc3F)ccc1Oc1ncc(-c3cccnc3F)cc12 [Example 788, (5S)-3-(2-fluoro-3-pyridinyl)-7-(4-fluoro-3-pyridinyl)spiro[chromeno[2,3-b]pyridine-5,4′-[1,3]thiazol]-2′-amine]	
8.34	7.13		CN(C)c1ccc(-c2cc3c(cn2)Oc2ccc(-c4cccnc4F)cc2[C@@]32COC(N)=N2)cc1 [Example 567, (5S)-3-(4-(dimethylamino)phenyl)-7-(2-fluoro-3-pyridinyl)spiro[chromeno[2,3-c]pyridine-5,4′-[1,3]oxazol]-2′-amine]	
8.51		8.25	NC1=N[C@@]2(CO1)c1cc(-c3ccc(F)nc3)ccc1Oc1c(F)cc(N3C[C@@H]4C[C@H]3CO4)cc12 [Example 302, (4S)-4′-fluoro-7′-(6-fluoro-3-pyridinyl)-2′-((1S,4S)-2-oxa-5-azabicyclo[2.2.1]hept-5-yl)spiro[1,3-oxazole-4,9′-xanthen]-2-amine]	
8.68	8.25		CC1(C)C[C@@H](c2cnc3c(c2)[C@]2(COC(N)=N2)c2cc(-c4cncc(Cl)c4)ccc2O3)CCO1 [Example 466, (5S)-7-(5-chloro-3-pyridinyl)-3-((4S)-2,2-dimethyltetrahydro-2H-pyran-4-yl)spiro[chromeno[2,3-b]pyridine-5,4′-[1,3]oxazol]-2′-amine]	
8.70		8.09	CC1(C)CN(c2cc(F)c3c(c2)[C@]2(COC(N)=N2)c2cc(-c4cncc(F)c4)ccc2O3)CCO1 [Example 282, (4S)-2′-(2,2-dimethyl-4-morpholinyl)-4′-fluoro-7′-(5-fluoro-3-pyridinyl)spiro[1,3-oxazole-4,9′-xanthen]-2-amine]	
8.70		8.44	CC1(C#Cc2cnc3c(c2)[C@@]2(COC(N)=N2)c2cc(-c4cccnc4F)c(F)cc2O3)COC1 [compound 108]	
8.85		7.81	COc1ccc(F)c(-c2ccc3c(c2)[C@@]2(COC(N)=N2)c2cc(C4=CCOCC4)cnc2O3)c1 [Example 323, (5S)-3-(3,6-dihydro-2H-pyran-4-yl)-7-(2-fluoro-5-methoxyphenyl)spiro[chromeno[2,3-b]pyridine-5,4′-[1,3]oxazol]-2′-amine]	
8.92	7.74		NC1=N[C@@]2(CO1)c1cc(-c3cccnc3F)ccc1Oc1cnc(-c3cncc(F)c3)cc12 [Example 569, (5S)-7-(2-fluoro-3-pyridinyl)-3-(5-fluoro-3-pyridinyl)spiro[chromeno[2,3-c]pyridine-5,4′-[1,3]oxazol]-2′-amine]	
9.00		8.38	CC(C)(O)CCc1cc(F)c2c(c1)[C@]1(COC(N)=N1)c1cc(-c3cccnc3F)ccc1O2 [Example 92, (S)-4-(2-amino-5′-fluoro-2′-(2-fluoropyridin-3-yl)-5H-spiro[oxazole-4,9′-xanthene]-7′-yl)-2-methylbutan-2-ol]	
9.10		7.83	CC(C)(C)/C=C/c1cc2c(cn1)Oc1ccc(-c3cncc(F)c3)cc1[C@@]21COC(N)=N1 [Example 372, (5S)-3-((1E)-3,3-dimethyl-1-buten-1-yl)-7-(5-fluoro-3-pyridinyl)spiro[chromeno[2,3-c]pyridine-5,4′-[1,3]oxazol]-2′-amine]	
9.30	7.48		NC1=N[C@@]2(CS1)c1cc(-c3cccnc3F)ccc1Oc1cnc(N3CCC(F)(F)CC3)cc12 [Example 933, (5S)-3-(4,4-difluoro-1-piperidinyl)-7-(2-fluoro-3-pyridinyl)spiro[chromeno[2,3-c]pyridine-5,4′-[1,3]thiazol]-2′-amine]	
9.30	8.22		NC1=N[C@@]2(CO1)c1cc(-c3cncc(F)c3)ccc1Oc1c2cc(N2CC[C@@H](F)C2)nc1F [Example 921, (5S)-1-fluoro-7-(5-fluoro-3-pyridinyl)-3-((3R)-3-fluoro-1-pyrrolidinyl)spiro[chromeno[2,3-c]pyridine-5,4′-[1,3]oxazol]-2′-amine]	
9.30		9.00	CC1(/C=C/c2cnc3c(c2)[C@]2(COC(N)=N2)c2cc(-c4cccnc4F)ccc2O3)COC1 [Example 175, (5S)-7-(2-fluoro-3-pyridinyl)-3-((E)-2-(3-methyl-3-oxetanyl)ethenyl)spiro[chromeno[2,3-b]pyridine-5,4′-[1,3]oxazol]-2′-amine]	
